# Assay results from US20230356105A1, “TETRAAZADODECANE BASED CHELATING AGENTS FOR SEPARATION OF RARE EARTH ELEMENTS AND METHOD THEREFOR” (Ustav Organicke Chemie a Biochemie AV CR V.V.I., priority 2020, published 2023).
# Values joined by “and” are separate entries in the source; they are usually repeats but may differ in a detail not shown here. Equal entries are not always repeated. Where two headings read alike, the source gives them in different places.
# Columns and labels:
# Format in all cases: physicochemical
# [1] = Separation of industrially relevant binary mixtures by precipitation using L1, L2 and L3 (Example 10); conditions: supernatant
# Protocol: Analogous to Example 7), three sets of reaction mixtures with two metals and either compound L1, L2, or L3 were prepared in a 96-well plate with the following differences: each well was equipped with one PTFE-coated magnetic stir bar, the well plate was sealed with a silicon cover, and the reaction mixtures were stirred on a magnetic stirrer for 2 days at room temperature. Analogous to Example 7), the well plate was then centrifuged and concentrations of the metals were determined using ICP-OES. […] It is evident from the results that certain degrees of enrichment are achieved for very different combinations of metals, and that ligands L1, L2, and L3 have different selectivities for given combinations of metals.
# [2] = Separation of Nd/Pr/Tb/Dy mixture by precipitation using L5 and α-HIBA (Example 23)
# Protocol: These aqueous reaction mixtures, each prepared to a total volume of 1.5 mL with the addition of water as necessary, were mixed by the use of a PTFE-coated stir bar on a magnetic stirrer. The cuvettes were sealed with transparent tape to prevent evaporation overnight. […] The supernatants were carefully pipetted out and transferred to a new set of tubes. […] The absolute concentration of the four metals in each supernatant and precipitate was determined by ICP-OES.
# [3] = Separation of Eu/Yb mixture by precipitation using L5 (Example 15); conditions: for Precipitate concentration [mM] Eu / Precipitate concentration [mM] Yb: dissolved to 150 μL
# Protocol: Stock solutions were pipetted into round-bottom 2 mL Eppendorf tubes as follows: • 1. 15 μL 100 mM aqueous solution of EuCl3 • 2. 10 μL 100 mM aqueous solution of YbCl3 • 3. 30 μL 100 mM aqueous solution of compound L5. • 4. 90 μL 0.5 M MOPS buffer pH=7.
# Three identical reaction mixtures were prepared. Each tube was equipped with one PTFE-coated magnetic stir bar and sealed, and the mixture was stirred on a magnetic stirrer for 24 hours at room temperature. The tubes were then centrifuged and the supernatants were carefully pipetted out and transferred to a new set of tubes. To the precipitate was added 100 μL 1 M HCl (reaching pH=0) and the mixture was stirred until full dissolution (overnight at room temperature, pH=0). The overall volume of the solution was adjusted to 150 μL volume by addition of water. The supernatants were treated with 1 M HCl for a total volume of 150 μL and pH=0.5. Concentrations of Eu and Yb in the supernatants and in the re-dissolved precipitates were determined by ICP-OES. The resulting absolute concentrations of both metals in the supernatants and precipitates, as well as calculated values of the separation factor Yb/Eu according to formula from Example 11), are summarized in Table 9. […] The average separation factor value was 152.
# [4] = L5 + α-HIBA, MOPS pH=7, 18 hours, individual samples A, B, C
# [5] = L5 + α-HIBA, MOPS pH=7, 18 hours, precipitate dissolved to 500 μL, individual samples A, B, C
smiles,measurement,setting,value
"O=C(O)CN1CCN(CC(=O)O)CCN(Cc2ccccc2)CCN(CC(=O)O)CC1 [L1, 2,2′,2″-(10-benzyl-1,4,7,10-tetraazacyclododecane-1,4,7-triyl)triacetic Acid]",[mM] M1,[1]; M1/M2=Eu/Y,0.118 mM
same,[mM] M2,[1]; M1/M2=Eu/Y,0.265 mM
same,[mM] M1,[1]; M1/M2=La/Ce,0.603 mM
same,[mM] M2,[1]; M1/M2=La/Ce,0.388 mM
same,[mM] M1,[1]; M1/M2=Nd/Ce,0.397 mM
same,[mM] M2,[1]; M1/M2=Nd/Ce,0.038 mM
same,[mM] M1,[1]; M1/M2=Nd/Dy,0.204 mM
same,[mM] M2,[1]; M1/M2=Nd/Dy,0.302 mM
same,[mM] M1,[1]; M1/M2=Nd/La,0.177 mM
same,[mM] M2,[1]; M1/M2=Nd/La,0.559 mM
same,[mM] M1,[1]; M1/M2=Nd/Pr,0.530 mM
same,[mM] M2,[1]; M1/M2=Nd/Pr,0.572 mM
same,[mM] M1,[1]; M1/M2=Nd/Tb,0.325 mM
same,[mM] M2,[1]; M1/M2=Nd/Tb,0.142 mM
same,[mM] M1,[1]; M1/M2=Pr/Ce,0.186 mM
same,[mM] M2,[1]; M1/M2=Pr/Ce,0.285 mM
same,[mM] M1,[1]; M1/M2=Pr/Dy,0.216 mM
same,[mM] M2,[1]; M1/M2=Pr/Dy,0.157 mM
same,[mM] M1,[1]; M1/M2=Pr/La,0.246 mM
same,[mM] M2,[1]; M1/M2=Pr/La,0.569 mM
same,[mM] M1,[1]; M1/M2=Tb/Dy,0.216 mM
same,[mM] M2,[1]; M1/M2=Tb/Dy,0.284 mM
same,[mM] M1,[1]; M1/M2=Tb/Eu,0.206 mM
same,[mM] M2,[1]; M1/M2=Tb/Eu,0.159 mM
same,[mM] M1,[1]; M1/M2=Tb/Pr,0.116 mM
same,[mM] M2,[1]; M1/M2=Tb/Pr,0.211 mM
same,[mM] M1,[1]; M1/M2=Tb/Y,0.143 mM
same,[mM] M2,[1]; M1/M2=Tb/Y,0.361 mM
"O=C(O)CN1CCN(CC(=O)O)CCN(Cc2cccc3ccccc23)CCN(CC(=O)O)CC1 [L5, 2,2′,2″-(10-(naphthalene-1-ylmethyl)-1,4,7,10-tetraazacyklododekane-1,4,7-triyl)triacetic acid]",supernatant concentration Dy,[2]; [4],1.73 and 1.38 and 1.65
same,supernatant concentration Nd,[2]; [4],1.31 and 0.78 and 0.98
same,supernatant concentration Pr,[2]; [4],0.32 and 0.20 and 0.24
same,supernatant concentration Tb,[2]; [4],1.22 and 1.00 and 1.17
same,precipitate concentration Dy,[2]; [5],1.04 and 0.95 and 1.05
same,precipitate concentration Nd,[2]; [5],8.60 and 7.83 and 8.96
same,precipitate concentration Pr,[2]; [5],2.30 and 2.08 and 2.40
same,precipitate concentration Tb,[2]; [5],1.25 mM (2×) and 1.11 mM
same,"precipitate concentration Dy, average",[2]; average of samples A-C,1.01
same,"precipitate concentration Nd, average",[2]; average of samples A-C,8.46
same,"precipitate concentration Pr, average",[2]; average of samples A-C,2.26
same,"precipitate concentration Tb, average",[2]; average of samples A-C,1.20
same,"supernatant concentration Dy, average",[2]; average of samples A-C,1.59
same,"supernatant concentration Nd, average",[2]; average of samples A-C,1.03
same,"supernatant concentration Pr, average",[2]; average of samples A-C,0.25
same,"supernatant concentration Tb, average",[2]; average of samples A-C,1.13
same,"% comp of precipitate, Dy",[2]; percent composition of phase,7.8%
same,"% comp of precipitate, Nd",[2]; percent composition of phase,65.4%
same,"% comp of precipitate, Pr",[2]; percent composition of phase,17.5%
same,"% comp of precipitate, Tb",[2]; percent composition of phase,9.3%
same,"% comp of supernatant, Dy",[2]; percent composition of phase,39.7%
same,"% comp of supernatant, Nd",[2]; percent composition of phase,25.7%
same,"% comp of supernatant, Pr",[2]; percent composition of phase,6.3%
same,"% comp of supernatant, Tb",[2]; percent composition of phase,28.3%
same,Supernatant concentration [mM] Eu,[3],0.16 mM and 0.22 mM
same,Supernatant concentration [mM] Yb,[3],3.69 mM and 3.85 mM and 3.97 mM
same,Precipitate concentration [mM] Eu,[3],4.66 mM and 4.57 mM and 4.50 mM
same,Precipitate concentration [mM] Yb,[3],0.63 mM and 0.62 mM and 0.58 mM
same,Precipitate concentration [mM] Eu,[3]; mean,4.58 mM
same,Precipitate concentration [mM] Yb,[3]; mean,0.61 mM
same,Supernatant concentration [mM] Eu,[3]; mean,0.19 mM
same,Supernatant concentration [mM] Yb,[3]; mean,3.84 mM
